The source of these data is article PMC7238120, “Strong and Selective Inhibitory Effects of the Biflavonoid Selamariscina A against CYP2C8 and CYP2C9 Enzyme Activities in Human Liver Microsomes” (Pharmaceutics, 2020).

In general, IC50 refers to the concentration needed to halve the response being measured. For orientation: Ki means a dissociation constant, usually derived from enzyme kinetics or from competition with a known ligand. The low end stands for higher affinity, the high end for lower affinity.

Read-outs that look alike come from different tables or passages of the source.

The data set has as its target T1, CYP1A2 (Homo sapiens, UniProt P05177).
T1 construct: incubation mixtures containing pooled human liver microsomes (HLMs, XTreme 200, XenoTech); tissue XenoTech XTreme 200; host or cells: pooled human liver microsomes
T1 sequence (P05177 1-516): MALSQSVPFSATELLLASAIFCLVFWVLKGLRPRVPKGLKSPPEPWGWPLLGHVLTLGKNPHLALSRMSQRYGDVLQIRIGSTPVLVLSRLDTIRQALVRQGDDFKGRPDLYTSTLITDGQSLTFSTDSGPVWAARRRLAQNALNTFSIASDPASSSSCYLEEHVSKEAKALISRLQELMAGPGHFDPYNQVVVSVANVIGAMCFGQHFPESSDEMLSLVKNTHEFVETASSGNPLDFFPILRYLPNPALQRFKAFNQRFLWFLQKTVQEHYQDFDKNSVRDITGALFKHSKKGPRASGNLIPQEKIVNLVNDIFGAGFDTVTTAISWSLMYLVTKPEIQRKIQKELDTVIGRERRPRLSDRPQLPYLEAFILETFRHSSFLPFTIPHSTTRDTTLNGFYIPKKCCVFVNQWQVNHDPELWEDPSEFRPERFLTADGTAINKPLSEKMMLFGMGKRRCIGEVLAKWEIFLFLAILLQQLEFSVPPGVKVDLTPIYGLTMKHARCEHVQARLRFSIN
In words: Inhibition of CYP1A2-catalyzed phenacetin O-deethylation in pooled human liver microsomes. The data set is classed as in vitro ADME. As to the method: The inhibitory potential of the five biflavonoids on the metabolism of nine P450 probe substrates was evaluated using previously developed methods with minor modifications. Biflavonoids were dissolved in methanol. The final concentration of methanol in the incubation mixture was 1.0% (v/v). We used these P450 probe substrates: phenacetin for CYP1A2, coumarin for CYP2A6, bupropion for CYP2B6, amodiaquine for CYP2C8, diclofenac for CYP2C9, omeprazole for CYP2C19, dextromethorphan for CYP2D6, chlorzoxazone for CYP2E1 and midazolam for CYP3A (Table 1). […] The reaction was stopped by adding 50 μL of ice-cold acetonitrile containing 7 nM trimipramine (internal standard, IS). After centrifugation at 18,000 g (5 min, 4 °C), aliquots of supernatants were analyzed by LC-MS/MS (Shimadzu LCMS 8060 system, Shimadzu, Kyoto, Japan). All microsomal incubations were conducted in triplicate. We used HLMs to determine the mechanisms and constants (Ki values) for […] A inhibition of CYP1A2, CYP2B6, CYP2C8, CYP2C9 and CYP3A. […] The substrates were used at concentrations approximately near to their respective Km values. […] The other conditions were the same as in the cytochrome P450 inhibition study. […] Phenomenex, Torrance, CA, USA) and analyzed using a Shimadzu LCMS 8060 triple-quadrupole mass spectrometer coupled with a Nexera X2 ultra high-performance liquid chromatography system (Shimadzu, Kyoto, Japan) equipped with an electrospray ionization interface. The mobile phase consisted of 0.1% formic acid in water (A) and 0.1% formic acid in acetonitrile (B). […] The flow rate was 0.2 mL/min. Electrospray ionization was performed in positive-ion mode at 4000 V or in negative-ion mode at -3500 V. […] Quantitation was conducted in selected reaction monitoring (SRM) modes with the precursor-to-product ion transition for each metabolite (Table 1 and Table 2). We analyzed the data with Shimadzu LabSolution LC-MS software. The IC50 values were calculated by WinNonlin software (Pharsight, Mountain View, CA, USA). The type of inhibition and the apparent kinetic parameters for inhibitory activity (Ki) were determined by following several criteria: visual inspection of Dixon plots, Lineweaver-Burk double reciprocal plots, and secondary plots of Lineweaver-Burk plots versus biflavonoid concentrations, the size of the sum of squares of the residuals, Akaike Information Criteria values, the S.E. and 95% confidence interval of the parameter estimates from the nonlinear regression analysis using the WinNonlin software. The models tested included competitive, competitive partial, noncompetitive, noncompetitive partial, uncompetitive, uncompetitive partial, and mixed-type inhibition.

Where [1] appears, read: substrate phenacetin 100 µM, pooled HLMs, read-out: IC50, P450 1A2.

In the case of `O=c1cc(-c2ccc(O)c(-c3c(O)cc(O)c4c(=O)cc(-c5ccc(O)cc5)oc34)c2)oc2cc(O)cc(O)c12` [amentoflavone], the midpoint of inhibition, the IC50, lay at 4.4 µM.
With `O=c1cc(-c2ccc(O)cc2)oc2c(-c3c(O)cc(O)c4c(=O)cc(-c5ccc(O)cc5)oc34)c(O)cc(O)c12` [cupressuflavone], the 50% inhibitory concentration (IC50) under setting [1] amounted to 5.9 µM.
With `CC(C)(O)c1ccccc1CC[C@@H](SCC1(CC(=O)O)CC1)c1cccc(/C=C/c2ccc3ccc(Cl)cc3n2)c1` [montelukast, reference compound], the half-maximal inhibitory concentration (IC50) under setting [1] is greater than 50 µM.
`O=c1cc(-c2ccc(O)c(-c3c(O)cc4oc(-c5ccc(O)cc5)cc(=O)c4c3O)c2)oc2cc(O)cc(O)c12` [robustaflavone]: the 50% inhibitory concentration (IC50) under setting [1] was determined as 4.5 µM.
For the molecule `O=C1CC(c2cc(-c3c(O)ccc4c(=O)cc(-c5ccc(O)cc5)oc34)c(O)cc2O)Oc2cc(O)cc(O)c21` (centres unmarked) [selamariscina A], where the note is “HLMs”, the “Mode of Inhibition, CYP1A2 phenacetin” value was “Competitive”. In addition, the inhibitory constant (Ki) (HLMs, average ± standard error, triplicate) was 3.1 ± 0.6 µM. Besides, the IC50 under setting [1] came out at 7.4 µM.
On to `O=c1cc(-c2ccc(O)c(-c3c(-c4ccc(O)cc4)oc4cc(O)cc(O)c4c3=O)c2)oc2cc(O)cc(O)c12` [taiwaniaflavone], for which the IC50 under setting [1] stood at 6.8 µM.
